From ChEMBL document CHEMBL1649226, “Species identification and antifungal susceptibility patterns of species belonging to Aspergillus section Nigri” (2009)
Starred links: 1 amine or outer side, 2 acyl side, 3 side chain; linkers in the order of their positions; H or OH if unused. Positions of bridges follow the written chain, without caps; N, C: chain ends. Non-standard residues stand in square brackets, D forms with d. Residues, ends and D or L forms follow the SMILES beside them. *: point of attachment. hTyr(3S-OH,4S-OH,3'-OSO3H) = N[C@H](C(=O)O)[C@H](O)[C@@H](O)c1ccc(O)c(OS(=O)(=O)O)c1; Orn(4R-OH,5R-OH) = O=C([C@H](C[C@@H](O)[C@@H](O)N[*:3])N[*:1])[*:2]; Pro(3S-OH,4S-Me) = C[C@H]1CN[C@H](C(=O)O)[C@H]1O; X1 = CCCCCOc1ccc(-c2cc(-c3ccc(C(=O)*)cc3)no2)cc1; Gln(3R-OH) = NC(=O)C[C@@H](O)[C@H](N)C(=O)O; Hyp = O=C(O)[C@@H]1C[C@@H](O)CN1

Experiments:
Type in all cases: functional
[1] = test system: Aspergillus niger; assay: Antifungal activity against Aspergillus niger isolate CM-3236 obtained from respiratory tract infection of patient assessed as inhibition of hyphal growth after 48 hrs; conditions: isolate CM-3236, 48 h, read-out: MEC
[2] = test system: Aspergillus niger; assay: Antifungal activity against Aspergillus niger isolate CM-3257 obtained from respiratory tract infection of patient assessed as inhibition of hyphal growth after 48 hrs; conditions: isolate CM-3257, 48 h, read-out: MEC
[3] = test system: Aspergillus niger; assay: Antifungal activity against Aspergillus niger isolate CM-3506 obtained from respiratory tract infection of patient assessed as inhibition of hyphal growth after 48 hrs; conditions: isolate CM-3506, 48 h, read-out: MEC
[4] = test system: Aspergillus tubingensis; assay: Antifungal activity against Aspergillus tubingensis isolate CM-3507 obtained from respiratory tract infection of patient assessed as inhibition of hyphal growth after 48 hrs; conditions: isolate CM-3507, 48 h, read-out: MEC
[5] = test system: Aspergillus tubingensis; assay: Antifungal activity against Aspergillus tubingensis isolate CM-3585 assessed as inhibition of hyphal growth after 48 hrs; conditions: isolate CM-3585, 48 h, read-out: MEC
[6] = test system: Aspergillus niger; assay: Antifungal activity against Aspergillus niger isolate CM-3586 obtained from catheter of patient assessed as inhibition of hyphal growth after 48 hrs; conditions: isolate CM-3586, 48 h, read-out: MEC
[7] = test system: Aspergillus niger; assay: Antifungal activity against Aspergillus niger isolate CM-3636 obtained from respiratory tract infection of patient assessed as inhibition of hyphal growth after 48 hrs; conditions: isolate CM-3636, 48 h, read-out: MEC
[8] = test system: Aspergillus niger; assay: Antifungal activity against Aspergillus niger isolate CM-3641 obtained from respiratory tract infection of patient assessed as inhibition of hyphal growth after 48 hrs; conditions: isolate CM-3641, 48 h, read-out: MEC
[9] = test system: Aspergillus niger; assay: Antifungal activity against Aspergillus niger isolate CM-3672 obtained from cutaneous layer of patient assessed as inhibition of hyphal growth after 48 hrs; conditions: isolate CM-3672, 48 h, read-out: MEC
[10] = test system: Aspergillus niger; assay: Antifungal activity against Aspergillus niger isolate CM-4004 obtained from assessed as inhibition of hyphal growth after 48 hrs; conditions: isolate CM-4004, 48 h, read-out: MEC
[11] = test system: Aspergillus niger; assay: Antifungal activity against Aspergillus niger isolate CM-4213 obtained from respiratory tract infection of patient assessed as inhibition of hyphal growth after 48 hrs; conditions: isolate CM-4213, 48 h, read-out: MEC
[12] = test system: Aspergillus tubingensis; assay: Antifungal activity against Aspergillus tubingensis isolate CM-4264 obtained from blood culture assessed as inhibition of hyphal growth after 48 hrs; conditions: isolate CM-4264, 48 h, read-out: MEC
[13] = test system: Aspergillus tubingensis; assay: Antifungal activity against Aspergillus tubingensis isolate CM-4296 obtained from respiratory tract infection of patient assessed as inhibition of hyphal growth after 48 hrs; conditions: isolate CM-4296, 48 h, read-out: MEC
[14] = test system: Aspergillus niger; assay: Antifungal activity against Aspergillus niger isolate CM-4316 obtained from respiratory tract infection of patient assessed as inhibition of hyphal growth after 48 hrs; conditions: isolate CM-4316, 48 h, read-out: MEC
[15] = test system: Aspergillus tubingensis; assay: Antifungal activity against Aspergillus tubingensis isolate CM-5094 obtained from respiratory tract infection of patient assessed as inhibition of hyphal growth after 48 hrs; conditions: isolate CM-5094, 48 h, read-out: MEC
[16] = test system: Aspergillus niger; assay: Antifungal activity against Aspergillus niger isolate CM-5095 obtained from respiratory tract infection of patient assessed as inhibition of hyphal growth after 48 hrs; conditions: isolate CM-5095, 48 h, read-out: MEC
[17] = test system: Aspergillus tubingensis; assay: Antifungal activity against Aspergillus tubingensis isolate CM-3123 obtained from respiratory tract infection of patient assessed as inhibition of hyphal growth after 48 hrs; conditions: isolate CM-3123, 48 h, read-out: MEC
[18] = test system: Aspergillus tubingensis; assay: Antifungal activity against Aspergillus tubingensis isolate CM-3810 obtained from respiratory tract infection of patient assessed as inhibition of hyphal growth after 48 hrs; conditions: isolate CM-3810, 48 h, read-out: MEC
[19] = test system: Aspergillus tubingensis; assay: Antifungal activity against Aspergillus tubingensis isolate CM-4003 assessed as inhibition of hyphal growth after 48 hrs; conditions: isolate CM-4003, 48 h, read-out: MEC
[20] = test system: Aspergillus tubingensis; assay: Antifungal activity against Aspergillus tubingensis isolate CM-4005 assessed as inhibition of hyphal growth after 48 hrs; conditions: isolate CM-4005, 48 h, read-out: MEC
[21] = test system: Aspergillus tubingensis; assay: Antifungal activity against Aspergillus tubingensis isolate CM-4688 obtained from respiratory tract infection of patient assessed as inhibition of hyphal growth after 48 hrs; conditions: isolate CM-4688, 48 h, read-out: MEC
[22] = test system: Aspergillus foetidus; assay: Antifungal activity against Aspergillus foetidus isolate CM-5264 obtained from respiratory tract infection of patient assessed as inhibition of hyphal growth after 48 hrs; conditions: isolate CM-5264, 48 h, read-out: MEC
[23] = test system: Aspergillus tubingensis; assay: Antifungal activity against Aspergillus tubingensis isolate CM-3125 obtained from respiratory tract infection of patient assessed as inhibition of hyphal growth after 48 hrs; conditions: isolate CM-3125, 48 h, read-out: MEC
[24] = test system: Aspergillus tubingensis; assay: Antifungal activity against Aspergillus tubingensis isolate CM-3177 obtained from respiratory tract infection of patient assessed as inhibition of hyphal growth after 48 hrs; conditions: isolate CM-3177, 48 h, read-out: MEC
[25] = test system: Aspergillus niger; assay: Antifungal activity against Aspergillus niger isolate CM-3551 obtained from respiratory tract infection of patient assessed as inhibition of hyphal growth after 48 hrs; conditions: isolate CM-3551, 48 h, read-out: MEC
[26] = test system: Aspergillus tubingensis; assay: Antifungal activity against Aspergillus tubingensis isolate CM-3654 obtained from blood culture assessed as inhibition of hyphal growth after 48 hrs; conditions: isolate CM-3654, 48 h, read-out: MEC
[27] = test system: Aspergillus tubingensis; assay: Antifungal activity against Aspergillus tubingensis isolate CM-4000 by broth dilution method assessed as inhibition of hyphal growth after 48 hrs; conditions: isolate CM-4000, 48 h, read-out: MEC
[28] = test system: Aspergillus tubingensis; assay: Antifungal activity against Aspergillus tubingensis isolate CM-4001 assessed as inhibition of hyphal growth after 48 hrs; conditions: isolate CM-4001, 48 h, read-out: MEC
[29] = test system: Aspergillus foetidus; assay: Antifungal activity against Aspergillus foetidus isolate CM-4002 assessed as inhibition of hyphal growth after 48 hrs; conditions: isolate CM-4002, 48 h, read-out: MEC
[30] = test system: Aspergillus niger; assay: Antifungal activity against Aspergillus niger isolate CM-4262 obtained from Ophthalmic assessed as inhibition of hyphal growth after 48 hrs; conditions: isolate CM-4262, 48 h, read-out: MEC
[31] = test system: Aspergillus tubingensis; assay: Antifungal activity against Aspergillus tubingensis isolate CM-4352 obtained from respiratory tract infection of patient assessed as inhibition of hyphal growth after 48 hrs; conditions: isolate CM-4352, 48 h, read-out: MEC
[32] = test system: Aspergillus tubingensis; assay: Antifungal activity against Aspergillus tubingensis isolate CM-4897 obtained from blood culture assessed as inhibition of hyphal growth after 48 hrs; conditions: isolate CM-4897, 48 h, read-out: MEC
[33] = test system: Aspergillus tubingensis; assay: Antifungal activity against Aspergillus tubingensis isolate CM-4899 obtained from respiratory tract infection of patient assessed as inhibition of hyphal growth after 48 hrs; conditions: isolate CM-4899, 48 h, read-out: MEC
[34] = test system: Aspergillus foetidus; assay: Antifungal activity against Aspergillus foetidus isolate CM-4995 obtained from prosthesis assessed as inhibition of hyphal growth after 48 hrs; conditions: isolate CM-4995, 48 h, read-out: MEC

Compound | minimal effective concentration [1] [µg/mL] | minimal effective concentration [2] [µg/mL] | minimal effective concentration [3] [µg/mL] | minimal effective concentration [4] [µg/mL] | minimal effective concentration [5] [µg/mL] | minimal effective concentration [6] [µg/mL] | minimal effective concentration [7] [µg/mL] | minimal effective concentration [8] [µg/mL] | minimal effective concentration [9] [µg/mL] | minimal effective concentration [10] [µg/mL] | minimal effective concentration [11] [µg/mL] | minimal effective concentration [12] [µg/mL] | minimal effective concentration [13] [µg/mL] | minimal effective concentration [14] [µg/mL] | minimal effective concentration [15] [µg/mL] | minimal effective concentration [16] [µg/mL] | minimal effective concentration [17] [µg/mL] | minimal effective concentration [18] [µg/mL] | minimal effective concentration [19] [µg/mL] | minimal effective concentration [20] [µg/mL] | also measured
CC[C@H](C)C[C@H](C)CCCCCCCCC(=O)N[C@H]1C[C@@H](O)[C@@H](NCCN)NC(=O)[C@@H]2[C@@H](O)CCN2C(=O)[C@H]([C@H](O)CCN)NC(=O)[C@H]([C@H](O)[C@@H](O)c2ccc(O)cc2)NC(=O)[C@@H]2C[C@@H](O)CN2C(=O)[C@H]([C@@H](C)O)NC1=O [CASPOFUNGIN] | 0.25 | 0.25 | 0.15 | 0.06 | 0.37 | 1 | 0.25 | 0.5 | 0.15 | 0.1 | 0.39 | 0.03 | 0.25 | 0.25 | 0.19 | 0.25 | 0.25 | 0.5 | 0.25 | 0.5 | minimal effective concentration [21]: 0.18 µg/mL; minimal effective concentration [22]: 0.06 µg/mL; minimal effective concentration [23]: 0.05 µg/mL; minimal effective concentration [24]: 0.05 µg/mL; minimal effective concentration [25]: 0.03 µg/mL; minimal effective concentration [26]: 0.14 µg/mL; minimal effective concentration [27]: 0.1 µg/mL; minimal effective concentration [28]: 0.11 µg/mL; minimal effective concentration [29]: 0.14 µg/mL; minimal effective concentration [30]: 0.13 µg/mL; minimal effective concentration [31]: 0.15 µg/mL; minimal effective concentration [32]: 0.1 µg/mL; minimal effective concentration [33]: 0.1 µg/mL; minimal effective concentration [34]: 0.14 µg/mL
CCCCCOc1ccc(-c2cc(-c3ccc(C(=O)N[C@H]4C[C@@H](O)[C@@H](O)NC(=O)[C@@H]5[C@@H](O)[C@@H](C)CN5C(=O)[C@H]([C@H](O)CC(N)=O)NC(=O)[C@H]([C@H](O)[C@@H](O)c5ccc(O)c(OS(=O)(=O)O)c5)NC(=O)[C@@H]5C[C@@H](O)CN5C(=O)[C@H]([C@@H](C)O)NC4=O)cc3)no2)cc1 [MICAFUNGIN] (X1-[Orn(4R-OH,5R-OH)]T[Hyp][hTyr(3S-OH,4S-OH,3'-OSO3H)][Gln(3R-OH)][Pro(3S-OH,4S-Me)]; lactam 1-C) | 0.03 | 0.03 | 0.03 | 0.03 | 0.03 | 0.03 | 0.03 | 0.03 | 0.03 | 0.03 | 0.03 | 0.03 | 0.03 | 0.03 | 0.03 | 0.03 | 0.03 | 0.03 | 0.03 | 0.03 | minimal effective concentration [21]: 0.03 µg/mL; minimal effective concentration [22]: 0.03 µg/mL; minimal effective concentration [23]: 0.03 µg/mL; minimal effective concentration [24]: 0.03 µg/mL; minimal effective concentration [25]: 0.03 µg/mL; minimal effective concentration [26]: 0.03 µg/mL; minimal effective concentration [27]: 0.03 µg/mL; minimal effective concentration [28]: 0.03 µg/mL; minimal effective concentration [29]: 0.03 µg/mL; minimal effective concentration [30]: 0.03 µg/mL; minimal effective concentration [31]: 0.03 µg/mL; minimal effective concentration [32]: 0.03 µg/mL; minimal effective concentration [33]: 0.05 µg/mL; minimal effective concentration [34]: 0.03 µg/mL
